Measurements from patent US4448962A, “Substituted quinoline carboxylic acid derivatives” (Kyorin Seiyaku Kabushiki Kaisha, priority 1978, dated 1984).
Converted amounts (≈) assume the structure as drawn. Read-outs that look alike come from different tables or passages of the source.

Assays:
Test in all cases: Antibacterial spectrum (Minimum Inhibitory Concentration)
Type in all cases: cell-based
[1] = tested on: Ps. aeruginosa IID 1210; conditions: Pseudomonas aeruginosa
Description: (§1) The antibacterial tests were done according to the method authorized by the Chemotherapeutic Society of Japan.

[2] = tested on: Salmonella enteritidies IID 604
Description: as §1

[3] = tested on: Ps. aeruginosa IID 1130; conditions: Pseudomonas aeruginosa
Description: as §1

[4] = tested on: Bacillus subtilis PCI 219
Description: as §1

[5] = tested on: Pseudomonas aeruginosa V-1
Description: as §1

[6] = tested on: Sta. aureus ATCC 14775; conditions: Staphylococcus aureus
Description: as §1

[7] = tested on: Pr. vulgaris XK Denken; conditions: Proteus vulgaris, read-out: Minimum Inhibitory Concentration
Description: as §1

[8] = tested on: Klebsiella pneumoniae IFO 3512; conditions: Klebsiella pneumoniae, IFO3512, read-out: Minimum Inhibitory Concentration
Description: as §1

[9] = tested on: Mycobacterium smegmatis IFO 3083; conditions: Mycolicibacterium smegmatis
Description: as §1

[10] = tested on: Escherichia coli NIHJ JC-2; conditions: Escherichia coli, NIHJJC2, read-out: Minimum Inhibitory Concentration
Description: as §1

[11] = tested on: Proteus vulgaris IFO 3167
Description: as §1

[12] = tested on: Shigella sonnei IID 969; conditions: IID969; Shigella sonnei IID 969, Gram -
Description: as §1

[13] = tested on: Ps. aeruginosa IFO 12689; conditions: Pseudomonas aeruginosa
Description: as §1

[14] = tested on: E. coli ATCC 10536; conditions: Escherichia coli, ATCC10536, read-out: Minimum Inhibitory Concentration
Description: as §1

[15] = tested on: Staphylococcus aureus 209P; conditions: read-out: Minimum Inhibitory Concentration
Description: as §1

CCn1cc(C(=O)O)c(=O)c2cnc(N3CCNCC3)nc21 [Pipemidic acid, reference compound]
MIC ([1]; IID1210, Ps. aeruginosa IID 1210, Gram -, read-out: Minimum Inhibitory Concentration): 50 µg/mL (≈ 165 µM)
MIC ([2]; IID604, Salmonella enteritidies IID 604, Gram -, read-out: Minimum Inhibitory Concentration): 12.5 µg/mL (≈ 41.2 µM)
MIC ([3]; IID1130, Ps. aeruginosa IID 1130, Gram -, read-out: Minimum Inhibitory Concentration): 25 µg/mL (≈ 82.4 µM)
MIC ([4]; PCI219, Bacillus subtilis PCI 219, Gram +, read-out: Minimum Inhibitory Concentration): 6.25 µg/mL (≈ 20.6 µM)
MIC ([5]; V1, Pseudomonas aeruginosa V-1, Gram -, read-out: Minimum Inhibitory Concentration): 12.5 µg/mL (≈ 41.2 µM)
MIC ([6]; ATCC14775, Sta. aureus ATCC 14775, Gram +, read-out: Minimum Inhibitory Concentration): 100 µg/mL (≈ 330 µM)
MIC ([7]; Pr. vulgaris XK Denken, Gram -): 6.25 µg/mL (≈ 20.6 µM)
MIC [8]: 1.56 µg/mL (≈ 5.14 µM)
MIC ([9]; IFO3083, Mycobacterium smegmatis IFO 3083, Gram +, read-out: Minimum Inhibitory Concentration): 50 µg/mL (≈ 165 µM)
MIC [10]: 1.56 µg/mL (≈ 5.14 µM)
MIC ([11]; IFO3167, Proteus vulgaris IFO 3167, Gram -, read-out: Minimum Inhibitory Concentration): 3.13 µg/mL (≈ 10.3 µM)
MIC [12]: 1.56 µg/mL (≈ 5.14 µM)
MIC ([13]; IFO12689, Ps. aeruginosa IFO 12689, Gram -, read-out: Minimum Inhibitory Concentration): 25 µg/mL (≈ 82.4 µM)
MIC [14]: 1.56 µg/mL (≈ 5.14 µM)
MIC ([15]; Staphylococcus aureus 209P, Gram +): 25 µg/mL (≈ 82.4 µM)

CCn1cc(C(=O)O)c(=O)c2ccc(C)nc21 [Nalidixic, nalidixic acid, reference compound]
MIC ([1]; IID1210, read-out: Minimum Inhibitory Concentration): > 200 µg/mL
MIC ([2]; Salmonella, IID604, read-out: Minimum Inhibitory Concentration): 12.5 µg/mL (≈ 53.8 µM)
MIC ([3]; IID1130, read-out: Minimum Inhibitory Concentration): > 200 µg/mL
MIC ([4]; Bacillus subtilis, PCI219, read-out: Minimum Inhibitory Concentration): 6.25 µg/mL (≈ 26.9 µM)
MIC ([5]; Pseudomonas aeruginosa, V1, read-out: Minimum Inhibitory Concentration): 100 µg/mL (≈ 431 µM)
MIC ([6]; ATCC14775, read-out: Minimum Inhibitory Concentration): > 100 µg/mL
MIC [7]: 3.13 µg/mL (≈ 13.5 µM)
MIC [8]: 1.56 µg/mL (≈ 6.72 µM)
MIC ([9]; IFO3083, read-out: Minimum Inhibitory Concentration): > 100 µg/mL
MIC [10]: 3.13 µg/mL (≈ 13.5 µM)
MIC ([11]; Proteus vulgaris, IFO3167, read-out: Minimum Inhibitory Concentration): 3.13 µg/mL (≈ 13.5 µM)
MIC [12]: 1.56 µg/mL (≈ 6.72 µM)
MIC ([13]; IFO12689, read-out: Minimum Inhibitory Concentration): > 200 µg/mL
MIC [14]: 3.13 µg/mL (≈ 13.5 µM)
MIC ([15]; Staphylococcus aureus, 209P): 100 µg/mL (≈ 431 µM)
